Measured values taken from patent US11559497B2 (Guangzhou Dazhou Biomedicine Ltd., priority 2020, dated 2023).

Assays:
[1] = Phase 1 clinical study: plasma pharmacokinetics after ketamine transdermal patch; conditions: for AUC / AUC(0-inf) / Cmax / half-life / Tmax: human, plasma, other: transdermal patch; for AUC(0-inf): AUCinf
Procedure: Enrollment was planned to achieve participation of up to 14 adult subjects with MDD in the 3 stages of the protocol. Subjects were to be screened within 4 weeks of enrollment. Eligible subjects who provided written consent were to be enrolled into Stage 1 of the study. In Stage 1 of the study, subjects were to receive the low-dose transdermal patch. The amount of residual drug was to be measured and PK analysis conducted for each subject to inform the subsequent dosing. In Stage 2, after a 2 to 4 week washout period, a placebo patch was to be administered. A “deception” protocol was used in order to ensure the subjects remained blinded to the treatment. Placebo administration was followed by a 1 week washout period, after which subjects were to receive the high-dose transdermal patch in Stage 3. The overall study duration from screening until the end of Stage 3 was approximately 60 days, including both inpatient and outpatient portions of the study. The general study design is illustrated in FIG. 3.
The patch was predicted to deliver systemically approximately 20 mg.
For Stage 1, blood samples were collected pre-patch application, and at 2, 6, 12, 24, 28, 32, 48, 96, and 168 hours post-patch application.
Blood samples were collected in tubes containing sodium heparin and stored on ice or room temperature until centrifuged under refrigeration or room temperature for at least 10 minutes at 3,000 revolutions per minute. After centrifugation, plasma was removed, divided into 2 aliquots of approximately 0.6 mL each, frozen, and stored at or below −20° C. Blood was processed to plasma and frozen within 1 hour of collection. Processed frozen plasma samples were transferred on dry ice to the analytical laboratory and were stored at or below −20° C. until bioanalysis was performed.
A non-compartmental analysis (NCA) was used to calculate PK parameters using Phoenix® WinNonlin® 6.4 or later (Certara, USA).

[2] = tested on: subjects diagnosed with major depressive disorder (MDD); assay: Phase 1 clinical study: safety; assay type: in vivo, human
From the text: Safety data included adverse events (AEs), concomitant medications, PE, vital signs (VS), ECGs, clinical laboratory results, other safety measures based on questionnaires (Clinician-Administered Dissociative States Scale [CADSS], Observer's Assessment of Alertness/Sedation Scale [OAA/S], Brief Psychiatric Rating Scale [BPRS]), and the emergence of suicidality based on the suicidal ideation and suicidal behavior ratings of the Columbia-Suicide Severity Rating Scale (C-SSRS). Safety summaries and analyses were performed on the Safety Population and were presented by treatment. Observed data was summarized using counts and percentages for discrete variables and means, SD, median, inter-quartile range (25th-75th percentile), minimum, and maximum for continuous measures.

patients = conditions: cited from earlier work
[3] = cited from earlier work
[4] = Stage 1: Ketamine Low-Dose (N = 18)
[5] = Stage 3: Ketamine High-Dose (N = 12)

CNC1(c2ccccc2Cl)CCCCC1=O (racemic) [Ketamine, ketamine]
plasma concentration ([1]; 96 hours post dose): minimal values
plasma concentration ([1]; 168 hours post dose): below quantification limit
Extrap ([1]; Stage 1, Mean): 6%
Extrap ([1]; Stage 1, Median): 6%
Extrap ([1]; Stage 3, Mean): 4%
Extrap ([1]; Stage 3, Median): 3%
AUC ([1]; 20 mg, AUCall, Stage 1 (60 cm^2 patch, 24 h, low-dose), Mean): 284 ng·h/mL
AUC ([1]; 20 mg, AUCall, Stage 1 (60 cm^2 patch, 24 h, low-dose), Median): 280 ng·h/mL
AUC(0-inf) ([1]; 20 mg, Stage 1, Mean): 299 ng·h/mL
AUC(0-inf) ([1]; 20 mg, Stage 1, Median): 274 ng·h/mL
Cmax ([1]; 20 mg, Stage 1, Mean): ~10.3 ng/mL
Cmax ([1]; 20 mg, Stage 1, Median): 9.92 ng/mL
half-life ([1]; 20 mg, T1/2, Stage 1, Mean): 13.2 h
half-life ([1]; 20 mg, T1/2, Stage 1, Median): 13.7 h
Tmax ([1]; 20 mg, Stage 1, Mean): 27.1 h
Tmax ([1]; 20 mg, Stage 1, Median): 28 h
AUC ([1]; 20 mg, average AUC of ketamine per cm^2 patch over 24 hours, Stage 1): 3.62 ng·h/mL
AUC ([1]; 40 mg, AUCall, Stage 3 (20 and 60 cm^2 patches, high-dose), Mean): 393 ng·h/mL
AUC ([1]; 40 mg, AUCall, Stage 3 (20 and 60 cm^2 patches, high-dose), Median): 339 ng·h/mL
AUC(0-inf) ([1]; 40 mg, Stage 3, Mean): 423 ng·h/mL
AUC(0-inf) ([1]; 40 mg, Stage 3, Median): 362 ng·h/mL
Cmax ([1]; 40 mg, Stage 3, Mean): ~14.4 ng/mL
Cmax ([1]; 40 mg, Stage 3, Median): 9.67 ng/mL
half-life ([1]; 40 mg, T1/2, Stage 3, Mean): 13.8 h
half-life ([1]; 40 mg, T1/2, Stage 3, Median): 14.9 h
Tmax ([1]; 40 mg, Stage 3, Mean): 27 h
Tmax ([1]; 40 mg, Stage 3, Median): 28 h
AUC ([1]; 40 mg, average AUC of ketamine per cm^2 patch over 24 hours, Stage 3): 4.17 ng·h/mL
overall safety and tolerability ([2]; 20 mg and 40 mg doses): generally safe and well tolerated
At least 1 TEAE, # of Events [2, 4]: 3
At least 1 TEAE, n (%) [2, 4]: 3 (16.7) n (%)
Cardiac disorders, # of Events [2, 4]: 0
Cardiac disorders, n (%) [2, 4]: 0 n (%)
Contusion, # of Events [2, 4]: 1
Contusion, n (%) [2, 4]: 1(5.6) n (%)
Depression, # of Events [2, 4]: 0
Depression, n (%) [2, 4]: 0 n (%)
Dermatitis, # of Events [2, 4]: 0
Dermatitis, n (%) [2, 4]: 0 n (%)
Diarrhoea, # of Events [2, 4]: 1
Diarrhoea, n (%) [2, 4]: 1(5.6) n (%)
Erythema, # of Events [2, 4]: 0
Erythema, n (%) [2, 4]: 0 n (%)
Gastrointestinal disorders, # of Events [2, 4]: 1
Gastrointestinal disorders, n (%) [2, 4]: 1 (5.6) n (%)
Headache, # of Events [2, 4]: 0
Headache, n (%) [2, 4]: 0 n (%)
Infections and infestations, # of Events [2, 4]: 0
Infections and infestations, n (%) [2, 4]: 0 n (%)
Injury, poisoning, and procedural complications, # of Events [2, 4]: 1
Injury, poisoning, and procedural complications, n (%) [2, 4]: 1 (5.6) n (%)
Nervous system disorders, # of Events [2, 4]: 1
Nervous system disorders, n (%) [2, 4]: 1 (5.6) n (%)
Psychiatric disorders, # of Events [2, 4]: 0
Psychiatric disorders, n (%) [2, 4]: 0 n (%)
Skin and subcutaneous tissue disorders, # of Events [2, 4]: 0
Skin and subcutaneous tissue disorders, n (%) [2, 4]: 0 n (%)
Somnolence, # of Events [2, 4]: 1
Somnolence, n (%) [2, 4]: 1 (5.6) n (%)
Swelling face, # of Events [2, 4]: 0
Swelling face, n (%) [2, 4]: 0 n (%)
Tachycardia, # of Events [2, 4]: 0
Tachycardia, n (%) [2, 4]: 0 n (%)
Urinary tract infection, # of Events [2, 4]: 0
Urinary tract infection, n (%) [2, 4]: 0 n (%)
At least 1 TEAE, # of Events [2, 5]: 5
At least 1 TEAE, n (%) [2, 5]: 4 (33.3) n (%)
Cardiac disorders, # of Events [2, 5]: 0
Cardiac disorders, n (%) [2, 5]: 0 n (%)
Contusion, # of Events [2, 5]: 1
Contusion, n (%) [2, 5]: 1 (8.3) n (%)
Depression, # of Events [2, 5]: 1
Depression, n (%) [2, 5]: 1 (8.3) n (%)
Dermatitis, # of Events [2, 5]: 0
Dermatitis, n (%) [2, 5]: 0 n (%)
Diarrhoea, # of Events [2, 5]: 0
Diarrhoea, n (%) [2, 5]: 0 n (%)
Erythema, # of Events [2, 5]: 1
Erythema, n (%) [2, 5]: 1 (8.3) n (%)
Gastrointestinal disorders, # of Events [2, 5]: 0
Gastrointestinal disorders, n (%) [2, 5]: 0 n (%)
Headache, # of Events [2, 5]: 1
Headache, n (%) [2, 5]: 1 (8.3) n (%)
Infections and infestations, # of Events [2, 5]: 0
Infections and infestations, n (%) [2, 5]: 0 n (%)
Injury, poisoning, and procedural complications, # of Events [2, 5]: 1
Injury, poisoning, and procedural complications, n (%) [2, 5]: 1 (8.3) n (%)
Nervous system disorders, # of Events [2, 5]: 1
Nervous system disorders, n (%) [2, 5]: 1 (8.3) n (%)
Psychiatric disorders, # of Events [2, 5]: 1
Psychiatric disorders, n (%) [2, 5]: 1 (8.3) n (%)
Skin and subcutaneous tissue disorders, # of Events [2, 5]: 2
Skin and subcutaneous tissue disorders, n (%) [2, 5]: 1 (8.3) n (%)
Somnolence, # of Events [2, 5]: 0
Somnolence, n (%) [2, 5]: 0 n (%)
Swelling face, # of Events [2, 5]: 1
Swelling face, n (%) [2, 5]: 1 (8.3) n (%)
Tachycardia, # of Events [2, 5]: 0
Tachycardia, n (%) [2, 5]: 0 n (%)
Urinary tract infection, # of Events [2, 5]: 0
Urinary tract infection, n (%) [2, 5]: 0 n (%)
OAA/S change from baseline composite score between treatments ([2]; any timepoint): No significant differences
TEAEs considered possibly related to the study drug ([2]; headache and diarrhoea): 2
PR interval or QTcB interval ([2]; human, in vivo): No trends in mean change from baseline
SBP, DBP, oxygen saturation, temperature ([2]; human, in vivo): No notable mean changes from baseline
adverse reactions at the patch application site ([2]; human, in vivo): no adverse reactions noted at the patch application site
deaths or SAEs ([2]; human, in vivo): no deaths or SAEs
laboratory parameters ([2]; human, in vivo): no clinically significant abnormal trends
severe TEAEs ([2]; human, in vivo): no severe TEAEs
respiratory rate and HR ([2]; ketamine high dose): a decrease in mean respiratory rate and an increase in HR compared to baseline
BPRS, BPRS-Positive subscale, CADSS total score post-patch application ([2]; low-dose or high-dose): no increase in the total score of the BPRS, the BPRS-Positive subscale, or the CADSS
TEAEs considered probably related to the study drug ([2]; somnolence): 1
time after which side effects typically resolved (patients; 0.5 mg/kg 40 minutes IV infusion): about 2 hours
duration of antidepressant effect after single dose (patients; IV infusion or intranasal spray): about 3 days
reduction of opioid consumption (patients; low-dose IV, perioperative pain, meta-analysis): 40%
absolute oral bioavailability ([3]; humans): 10-20%
systemic (primarily hepatic) clearance ([3]; in vivo): about 19 ml/min·kg
